Test results reported in US11111233B2, “Amino pyrimidine compound for inhibiting protein tyrosine kinase activity” (Shenzhen TargetRx, Inc., priority 2016, dated 2021).
Read-outs that look alike come from different tables or passages of the source.

Assays:
[1] = target: WT EGFR (Homo sapiens (Human), UniProt P00533); assay: Kinase inhibition assay (HTRF), WT EGFR; assay type: biochemical; details: HTRF Kinase TK kit, 10 min pre-incubation, 20 min reaction
[2] = target: EGFR [L858R/T790M] (Homo sapiens (Human), UniProt P00533, L858R/T790M); assay: Kinase inhibition assay (HTRF), EGFR [L858R/T790M]; assay type: biochemical; details: HTRF Kinase TK kit, 10 min pre-incubation, 20 min reaction; read-out: EGFR(L858R/T790M) IC50
[3] = tested on: Skin cancer cell line A431 (WT); assay: Cytotoxicity test (MTS cell viability), A431; assay type: cell-based; details: Homo sapiens, A-431; MTS, 72 hours; read-out: A431 (WT) IC50
[4] = tested on: lung cancer cells HCC827 (Del19); assay: Cytotoxicity test (MTS cell viability), HCC827; assay type: cell-based; details: Homo sapiens
[5] = HCC827, MTS, 72 hours, read-out: HCC827 (Del19) IC50

Chain of EGFR [L858R/T790M] (P00533 25-1210 T790M/L858R): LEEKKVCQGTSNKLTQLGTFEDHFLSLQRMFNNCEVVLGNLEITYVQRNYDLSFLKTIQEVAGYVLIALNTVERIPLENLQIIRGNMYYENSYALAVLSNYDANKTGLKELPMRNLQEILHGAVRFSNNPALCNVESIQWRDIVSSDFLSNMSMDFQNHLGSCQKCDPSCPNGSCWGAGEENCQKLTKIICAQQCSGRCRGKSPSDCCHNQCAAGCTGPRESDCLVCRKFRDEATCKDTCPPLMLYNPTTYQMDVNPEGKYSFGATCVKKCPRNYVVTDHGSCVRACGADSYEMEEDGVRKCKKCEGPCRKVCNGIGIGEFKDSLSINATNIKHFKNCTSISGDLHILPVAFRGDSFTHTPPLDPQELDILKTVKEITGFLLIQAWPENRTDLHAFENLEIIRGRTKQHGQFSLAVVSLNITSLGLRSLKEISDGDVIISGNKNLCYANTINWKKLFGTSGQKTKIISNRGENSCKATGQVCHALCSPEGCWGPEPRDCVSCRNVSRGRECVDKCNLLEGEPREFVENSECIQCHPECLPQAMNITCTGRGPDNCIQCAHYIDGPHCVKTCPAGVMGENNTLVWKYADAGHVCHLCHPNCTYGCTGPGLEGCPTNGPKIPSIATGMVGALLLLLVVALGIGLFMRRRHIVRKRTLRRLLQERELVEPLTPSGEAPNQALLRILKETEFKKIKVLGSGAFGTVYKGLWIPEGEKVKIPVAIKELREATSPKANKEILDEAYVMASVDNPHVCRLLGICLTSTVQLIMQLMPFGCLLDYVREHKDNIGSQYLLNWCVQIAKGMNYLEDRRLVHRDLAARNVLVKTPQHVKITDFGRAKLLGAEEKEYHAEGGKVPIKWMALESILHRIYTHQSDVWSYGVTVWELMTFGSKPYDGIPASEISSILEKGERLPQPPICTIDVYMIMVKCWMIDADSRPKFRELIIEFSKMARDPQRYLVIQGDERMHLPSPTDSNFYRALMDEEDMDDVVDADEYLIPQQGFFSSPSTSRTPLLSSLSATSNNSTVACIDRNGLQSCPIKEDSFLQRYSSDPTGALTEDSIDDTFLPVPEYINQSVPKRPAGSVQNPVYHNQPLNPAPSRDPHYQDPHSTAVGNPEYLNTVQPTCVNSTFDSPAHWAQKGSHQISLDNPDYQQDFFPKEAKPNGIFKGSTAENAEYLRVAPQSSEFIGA
Chain of WT EGFR (P00533 25-1210): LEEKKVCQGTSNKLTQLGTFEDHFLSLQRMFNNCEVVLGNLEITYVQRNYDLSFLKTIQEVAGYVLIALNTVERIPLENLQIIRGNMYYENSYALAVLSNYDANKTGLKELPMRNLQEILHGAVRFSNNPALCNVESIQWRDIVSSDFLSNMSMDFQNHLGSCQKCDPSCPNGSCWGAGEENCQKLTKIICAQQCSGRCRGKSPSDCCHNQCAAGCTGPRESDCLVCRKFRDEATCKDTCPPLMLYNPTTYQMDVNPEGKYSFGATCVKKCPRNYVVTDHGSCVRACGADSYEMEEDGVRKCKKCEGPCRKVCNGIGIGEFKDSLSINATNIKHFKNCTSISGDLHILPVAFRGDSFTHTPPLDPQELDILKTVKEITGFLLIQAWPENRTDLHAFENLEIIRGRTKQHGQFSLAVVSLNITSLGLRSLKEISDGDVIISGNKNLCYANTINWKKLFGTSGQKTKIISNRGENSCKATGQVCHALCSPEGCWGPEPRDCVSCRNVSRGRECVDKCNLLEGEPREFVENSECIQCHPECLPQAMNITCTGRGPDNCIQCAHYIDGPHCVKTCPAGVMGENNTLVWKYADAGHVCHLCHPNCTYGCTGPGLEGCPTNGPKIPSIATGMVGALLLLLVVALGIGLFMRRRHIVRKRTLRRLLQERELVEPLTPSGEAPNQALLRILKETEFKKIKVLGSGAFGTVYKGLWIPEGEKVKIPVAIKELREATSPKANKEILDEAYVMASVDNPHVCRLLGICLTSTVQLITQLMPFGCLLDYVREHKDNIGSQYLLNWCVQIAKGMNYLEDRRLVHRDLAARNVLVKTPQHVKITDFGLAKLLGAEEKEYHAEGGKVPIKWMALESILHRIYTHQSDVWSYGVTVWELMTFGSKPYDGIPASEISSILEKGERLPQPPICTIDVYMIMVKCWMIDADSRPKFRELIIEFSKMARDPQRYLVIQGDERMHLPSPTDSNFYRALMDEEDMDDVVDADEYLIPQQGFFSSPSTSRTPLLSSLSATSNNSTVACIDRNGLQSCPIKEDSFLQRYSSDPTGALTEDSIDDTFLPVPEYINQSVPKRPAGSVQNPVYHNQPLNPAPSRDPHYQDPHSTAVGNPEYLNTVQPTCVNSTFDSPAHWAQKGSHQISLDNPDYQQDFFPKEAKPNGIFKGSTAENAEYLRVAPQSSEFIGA

IC50 [1] [nM]	IC50 [2] [nM]	SMILES	IC50 [3] [nM]	IC50 [4, 5] [nM]	IC50 ([4]; HCC827, 72 h, read-out: HCC827 (Del19) IC50(nM)) [nM]
1 to 50	1 to 50	COc1cc(N2CCN(C)CC2)ccc1Nc1ncc(F)c(-c2cc(F)c3nc(C)n(C(C)C)c3c2)n1 [Example 55, 5-fluoro-4-(4-fluoro-1-isopropyl-2-methyl-1H-benzo[d]imidazole-6-yl)-N-(2-methoxy-4-(4-methylpiperazin-1-yl)phenyl)pyrimidin-2-amine]	400 to 1000	400 to 1000	–
1 to 50	< 1	C=CC(=O)Nc1cc(Nc2nccc(-c3cc(F)c4nc(COC)n(C(C)C)c4c3)n2)c(OC)cc1N(C)CCN(C)C [Example 65, N-(2-((2-(dimethylamino)ethyl)(methyl)amino)-5-((4-(4-fluoro-1-isopropyl-2-(methoxymethyl)-1H-benzo[d]imidazol-6-yl)pyrimidin-2-yl)amino)-4-methoxyphenyl)acrylamide]	100 to 400	< 10	–
1 to 50	< 1	C=CC(=O)Nc1cc(Nc2nccc(-c3cc(F)c4nc(OCC)n(C(C)C)c4c3)n2)c(OC)cc1N(C)CCN(C)C [Example 62, N-(2-((2-(dimethylamino)ethyl)(methyl)amino)-5-((4-(2-ethoxy-4-fluoro-1-isopropyl-1H-benzo[d]imidazol-6-yl)pyrimidin-2-yl)amino)-4-methoxyphenyl)acrylamide]	> 1000	10 to 100	–
1 to 50	< 1	C=CC(=O)Nc1cc(Nc2nccc(-c3ccc4nc(C)n(C(C)C)c4c3)n2)c(OC)cc1N(C)CCN(C)C [Example 35, N-(2-((2-(dimethylamino)ethyl)(methyl)amino)-5-((4-(1-isopropyl-2-methyl-1H-benzo[d]imidazole-6-yl)pyrimidin-2-yl)amino)-4-methoxyphenyl)acrylamide]	400 to 1000	10 to 100	–
1 to 50	1 to 50	C=CC(=O)Nc1cc(Nc2nccc(-c3cc(F)c4nc(C)c(C(C)C)n4c3)n2)c(OC)cc1N(C)CCN(C)C [Example 28, N-(2-((2-(dimethylamino)ethyl)(methyl)amino)-5-((4-(8-fluoro-3-isopropyl-2-methylimidazo[1,2-a]pyridine-6-yl)pyrimidin-2-yl)amino)-4-methoxyphenyl)acrylamide]	400 to 1000	10 to 100	–
> 100	> 100	COc1cc(N2CCN(C)CC2)ccc1Nc1ncc(F)c(-c2cc(F)c3nc(C)cn3c2)n1 [Example 58, 5-fluoro-4-(8-fluoro-2-methylimidazo[1,2-a]pyridine-6-yl)-N-(2-methoxy-4-(4-methylpiperazin-1-yl)phenyl)pyrimidin-2-amine]	> 1000	> 1000	–
1 to 50	< 1	C=CC(=O)Nc1cc(Nc2nccc(-c3cc(F)c4[nH]ncc4c3)n2)c(OC)cc1N(C)CCN(C)C [Example 38, N-(2-((2-(dimethylamino)ethyl)(methyl)amino)-5-((4-(7-fluoro-1H-indazole-5-yl)pyrimidin-2-yl)amino)-4-methoxyphenyl)acrylamide]	> 1000	10 to 100	–
1 to 50	< 1	C=CC(=O)Nc1cc(Nc2nccc(-c3cc(F)c4nn(C)cc4c3)n2)c(OC)cc1N(C)CCN(C)C [Example 40, N-(2-((2-(dimethylamino)ethyl)(methyl)amino)-5-((4-(7-fluoro-2-methyl-2H-indazole-5-yl)pyrimidin-2-yl)amino)-4-methoxyphenyl)acrylamide]	400 to 1000	10 to 100	–

SMILES	IC50 [1] [nM]	IC50 [2] [nM]	IC50 [3] [nM]	IC50 [4, 5] [nM]	IC50 ([4]; HCC827, 72 h, read-out: HCC827 (Del19) IC50(nM)) [nM]
C=CC(=O)Nc1cc(Nc2nccc(-c3cc(F)c4nc(C)n(C(C)C)c4c3)n2)c(OC)cc1N1CCC(N2CCOCC2)CC1 [Example 13]	1 to 50	1 to 50	> 1000	–	10 to 100
